The values that follow come from paper PMC7840129, “Structural basis for heme-dependent NCoR binding to the transcriptional repressor REV-ERBβ” (Science Advances, 2021).

In one experiment the target is T1, Apo REV-ERBβ LBD (Homo sapiens, UniProt Q14995).
T1 construct: The human REV-ERBβ LBD (residues 381 to 579) was previously cloned; 6xHis with 3C protease cleavage site (N, cleaved yes); made in house; host or cells: E. coli BL21(DE3)
T1 sequence (Q14995 381-579): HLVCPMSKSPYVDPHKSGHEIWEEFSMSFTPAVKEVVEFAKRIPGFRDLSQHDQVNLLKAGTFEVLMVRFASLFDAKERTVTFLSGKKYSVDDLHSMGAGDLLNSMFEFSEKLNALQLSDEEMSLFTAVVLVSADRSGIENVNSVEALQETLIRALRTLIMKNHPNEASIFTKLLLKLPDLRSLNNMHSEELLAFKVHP
Description: ITC, NCoR ID peptides with apo REV-ERBβ LBD. It counts as binding. From the text:
The human REV-ERBβ LBD (residues 381 to 579) was previously cloned into the pET46 vector ([18]). The mouse NCoR RID (residues 1942 to 2208 in the X50 splice variant), which has 87% sequence identity to human NCoR RID (100% sequence identity in the ID motifs), was previously cloned into the pET32 vector ([29]). NCoR RID mutants were generated by site-directed mutagenesis: The ID1 CoRNR box motif was mutated from […] to […] (ΔID1 and ΔID1ΔID2), and the ID2 CoRNR box motif was mutated from LEDIIRKAL to TEDTTRKAL (ΔID2 and ΔID1ΔID2), as these mutations were previously reported to disrupt CoRNR box binding ([10], [30]). Heme (Sigma-Aldrich, no. 51280) was prepared either as a 1 mM stock in dimethyl sulfoxide (DMSO) stored at 4°C or 50 mM stock in 0.2 M NaOH (solutions prepared in 0.2 M NaOH were always made fresh immediately before the experiment), where indicated. […] Human embryonic kidney (HEK) 293T cells (American Type Culture Collection, no. CRL-11268) were cultured in Dulbecco’s modified eagle medium (DMEM) supplemented with 10% fetal bovine serum, 2 mM L-glutamine, and 1% penicillin-streptomycin at 37°C and 5% CO2 under standard culture conditions. The pcDNA3.1^+ expression vector containing full-length human REV-ERBβ ([31]) and the pGL3-Bmal1-luciferase construct containing the Bmal1 promoter (−816 to +99 of the mouse Bmal1 promoter region) were used in HEK293T cell transfections. Site-directed mutagenesis was performed to mutate the proximal RORE (pRORE mutant), distal RORE (dRORE mutant), or both (p/dRORE mutant) in the pGL3-Bmal1-luciferase construct based on a previous study ([6]) where the ROREs were mutated to disrupt REV-ERBα activity.
Human REV-ERBβ LBD was expressed in BL21(DE3) Escherichia coli cells with an N-terminal hexahistidine (6xHis) tag separated by a 3C protease cleavage site. Expression was performed using auto-induction media: Cells were grown at 37°C for 5 hours, 30°C for 1 hour, and 18°C for 16 hours before harvesting by centrifugation. Pellets were resuspended in potassium phosphate lysis buffer [40 mM potassium phosphate (pH 7.4), 500 mM KCl, 15 mM imidazole, and 1 mM dithiothreitol (DTT)] supplemented with leupeptin, pepstatin A, lysozyme, and deoxyribonuclease (DNase) I and sonicated on ice. […] A 5-ml aliquot of 6xHis-tagged protein was purified by size exclusion chromatography using a Superdex 75 column equilibrated in time-resolved fluorescence energy transfer (TR-FRET) assay buffer [20 mM potassium phosphate (pH 7.4), 50 mM KCl, and 0.5 mM EDTA]; purified aliquots were stored at −80°C for TR-FRET assays. To cleave the 6xHis tag from the remaining protein, it was incubated overnight with 3C protease (generated in-house) via dialysis; then, protein was reloaded onto the HisTrap columns, and the flow-through was collected. Last, aggregates were removed by size exclusion chromatography using a Superdex 75 column and Hepes gel filtration buffer [20 mM Hepes (pH 7.4), 50 mM KCl, and 0.5 mM EDTA]. Greater than 95% purity was confirmed by SDS-PAGE. Protein was aliquoted and stored at −80°C.
ITC experiments were performed using a MicroCal iTC200. All experiments were solvent-matched and contained 0.1% DMSO (peptide vehicle) and 0.2% 0.2 M solution of NaOH (heme vehicle) final concentrations. NITPIC software ([37]) was used to calculate baselines and integrate curves and prepare experimental data for fitting in SEDPHAT, which was used to generate final binding affinity and thermodynamic parameter measurements ([38]).Final figures were exported to GUSSI for publication-quality figure preparation ([39]).
NCoR ID1 and NCoR ID2 peptides were prepared at 50 μM in assay buffer [20 mM Hepes (pH 7.4), 50 mM KCl, 0.5 mM EDTA, and 5 mM tris(2-carboxyethyl)phosphine (TCEP)], and REV-ERBβ LBD was prepared at 500 μM. […]
(In general: Isothermal titration calorimetry measures the heat released or taken up as one component is titrated into another.)

A further experiment concerns the target T2, heme-bound REV-ERBβ LBD (Homo sapiens, UniProt Q14995).
T2 construct: The human REV-ERBβ LBD (residues 381 to 579) was previously cloned; 6xHis with 3C protease cleavage site (N, cleaved yes); made in house; host or cells: E. coli BL21(DE3)
T2 sequence (Q14995 381-579): T1 sequence (Q14995 381-579)
Description: ITC, NCoR ID peptides with heme-bound REV-ERBβ LBD. It counts as binding. The following applies: for TΔS: pH 7.4, T constant at 25°C; for thermodynamic profile of peptide binding (in words), + heme: heme-bound LBD; for effect of heme on LBD affinity for peptide (in words): heme-bound vs apo LBD.

The mark [1] stands for this setting: ID2 peptide, 25°C, fitted estimate due to low c value, 95% CI n.d.
The mark [2] stands for this setting: +Heme LBD, pH 7.4, 25°C, 95% CI.
[3] abbreviates: ID1 peptide, pH 7.4, 25°C, 95% CI.

Description for heme-bound REV-ERBβ LBD: NCoR RID mutants were generated by site-directed mutagenesis: The ID1 CoRNR box motif was mutated from [sequence] to [sequence] (ΔID1 and ΔID1ΔID2), and the ID2 CoRNR box motif was mutated from LEDIIRKAL to TEDTTRKAL (ΔID2 and ΔID1ΔID2), as these mutations were previously reported to disrupt CoRNR box binding ([10], [30]). Heme (Sigma-Aldrich, no. 51280) was prepared either as a 1 mM stock in dimethyl sulfoxide (DMSO) stored at 4°C or 50 mM stock in 0.2 M NaOH (solutions prepared in 0.2 M NaOH were always made fresh immediately before the experiment), where indicated. […] Human embryonic kidney (HEK) 293T cells (American Type Culture Collection, no. CRL-11268) were cultured in Dulbecco’s modified eagle medium (DMEM) supplemented with 10% fetal bovine serum, 2 mM L-glutamine, and 1% penicillin-streptomycin at 37°C and 5% CO2 under standard culture conditions. The pcDNA3.1^+ expression vector containing full-length human REV-ERBβ ([31]) and the pGL3-Bmal1-luciferase construct containing the Bmal1 promoter (−816 to +99 of the mouse Bmal1 promoter region) were used in HEK293T cell transfections. Site-directed mutagenesis was performed to mutate the proximal RORE (pRORE mutant), distal RORE (dRORE mutant), or both (p/dRORE mutant) in the pGL3-Bmal1-luciferase construct based on a previous study ([6]) where the ROREs were mutated to disrupt REV-ERBα activity.
LBD in the syringe was titrated into ID peptide in the sample cell at 25°C with a 60-s delay between injections (2-μl intervals) with a mixing speed of 1200 rpm for a total of 20 injections (or 2 molar equivalents of LBD), unless otherwise noted below.

As for `CC[C@H](C)[C@H](NC(=O)[C@H](CC(=O)O)NC(=O)[C@H](CCC(=O)O)NC(=O)[C@H](CC(C)C)NC(=O)CNC(=O)[C@H](CC(C)C)NC(=O)[C@H](CC(N)=O)NC(=O)[C@H](CO)NC(=O)[C@H](C)NC(=O)[C@@H]1CCCN1C(=O)[C@H](CC(=O)O)NC(C)=O)C(=O)N[C@H](C(=O)N[C@@H](CCCNC(=N)N)C(=O)N[C@@H](CCCCN)C(=O)N[C@@H](C)C(=O)N[C@@H](CC(C)C)C(=O)N[C@@H](CCSC)C(=O)NCC(=O)N[C@@H](CO)C(=O)N[C@@H](Cc1ccccc1)C(=O)N[C@@H](CC(=O)O)C(=O)N[C@@H](CC(=O)O)C(=O)N[C@@H](CCCCN)C(N)=O)[C@@H](C)CC` [NCoR ID2 peptide], at Apo REV-ERBβ LBD, the “affinity of apo LBD for peptide (in words)” value is on record as “low affinity”; the “thermodynamic profile of peptide binding (in words), apo” value was “enthalpically driven and exothermic”. In addition, on Apo REV-ERBβ LBD (setting [1]), the TΔS was -4.2 kcal/mol; the “ΔG, free energy of binding” value is -5.6 kcal/mol; the “ΔH, enthalpy of binding” value is -9.7 kcal/mol. Also, the “ΔH, enthalpy of binding” value on heme-bound REV-ERBβ LBD (setting [2]) was determined as 3.0 kcal/mol. For the same compound, the TΔS at heme-bound REV-ERBβ LBD (+Heme LBD, 95% CI) came to 10.7 kcal/mol. At heme-bound REV-ERBβ LBD, the “thermodynamic profile of peptide binding (in words), + heme” value was “entropically driven and endothermic”; the “effect of heme on LBD affinity for peptide (in words)” value is reported as “increased LBD affinity”.
Regarding “Ac-RTHRLITLADHICQIITQDFARN-NH2 [NCoR ID1 peptide]”, on Apo REV-ERBβ LBD, the “affinity of apo LBD for peptide (in words)” value is given as “high affinity”; the “thermodynamic profile of peptide binding (in words), apo” value is “enthalpically driven and exothermic”. In addition, on Apo REV-ERBβ LBD (setting [3]), the “ΔG, free energy of binding” value was -8.6 kcal/mol and the “ΔH, enthalpy of binding” value was -7.7 kcal/mol. The TΔS on Apo REV-ERBβ LBD (ID1 peptide, pH 7.4, T constant at 25°C, 95% CI) is reported as 0.88 kcal/mol. On heme-bound REV-ERBβ LBD (setting [2]), the “ΔG, free energy of binding” value was -7.7 kcal/mol and the “ΔH, enthalpy of binding” value turned out to be 1.7 kcal/mol. For the same compound, the TΔS on heme-bound REV-ERBβ LBD (+Heme LBD, 95% CI) came out at 9.3 kcal/mol. Also, on heme-bound REV-ERBβ LBD, the “thermodynamic profile of peptide binding (in words), + heme” value was “entropically driven and endothermic”; the “effect of heme on LBD affinity for peptide (in words)” value is “decreased LBD affinity”.
